Source: ChEMBL document CHEMBL1154859, “Structure of aldehyde reductase in ternary complex with a 5-arylidene-2,4-thiazolidinedione aldose reductase inhibitor” (Eur J Med Chem, 2010)

How the values were obtained:
[1] = target: T1, Aldo-keto reductase family 1 member A1 (Sus scrofa, UniProt P50578); assay: Inhibition of pig ALR1 assessed as decrease in NADPH absorbance by spectrophotometry
T1 sequence (P50578 whole entry): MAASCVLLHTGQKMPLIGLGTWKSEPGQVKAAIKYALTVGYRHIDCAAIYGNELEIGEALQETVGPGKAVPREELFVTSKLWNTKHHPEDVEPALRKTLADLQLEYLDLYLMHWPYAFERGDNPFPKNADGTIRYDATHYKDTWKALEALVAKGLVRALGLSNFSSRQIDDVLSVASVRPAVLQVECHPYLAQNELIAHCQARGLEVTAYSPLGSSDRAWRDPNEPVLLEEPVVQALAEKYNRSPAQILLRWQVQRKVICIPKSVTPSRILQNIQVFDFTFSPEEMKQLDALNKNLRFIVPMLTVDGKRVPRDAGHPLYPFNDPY

[2] = Ratio of IC50 for pig ALR1 to IC50 for calf ALR2

IC50 [1]: 37 µM
Ratio IC50 [2]: 56
SMILES: COc1ccc(/C=C2\SC(=O)N(CC(=O)O)C2=O)cc1O
